Legend:
Test in all cases: Human Regulatory T Cell Degradation Assay
Type in all cases: cell-based
Settings in all cases: human regulatory T cells, 20 hours; for DC50: vs DMSO alone
IKZF4 Eos = target: T1, IKZF4 Eos (Homo sapiens, UniProt Q96SW2+Q9H2S9)
T1 construct: endogenous in cells; host or cells: primary human CD4+CD127lowCD25+ Treg cells from healthy leukopaks

IKZF2 Helios = IKZF2 Helios (Homo sapiens, UniProt Q96SW2+Q9UKS7); set-up: endogenous in cells; host or cells: primary human CD4+CD127lowCD25+ Treg cells from healthy leukopaks
Experimental: Cryopreserved human regulatory T cells were thawed in RPMI + 10%FBS + 20 ng/mL IL-2. After being spun at 1200 rpm for 5 mins, the cells were resuspended in RPMI + 10% FBS+ 20 ng/mL and rested at 37 °C with 5% CO2 for 3 hours. The cells were then plated at 40,000 cells/well in 40 µL RPMI + 10% FBS + 20 ng/mL human IL-2 in a 384 well cell culture plate prior to using acoustic dispensing technology (ECHO 555) for adding compounds of interest. Cell cultures were incubated for 20 hours at 37 °C and 5% CO2. In order to facilitate analysis, cell cultures were spun down at 1200 rpm for 5 minutes and the supernatant was discarded using an EL406 plate washer. After washing three times with 70 µL PBS, cell pellets were resuspended in 50 µL of near IR viability staining solution (Life Technologies, Cat# L34975) and incubated for 30 minutes on ice protected from light. Cells were washed three times with 70 µL PBS + 0.5% BSA using an EL406 plate washer. After shaking the plate to dislodge the cell pellet, cells were resuspended in 50 µL of Fixation Buffer (eBioScience FoxP3 buffer set 00-5523-00) for 60 minutes at room temperature. After centrifuging and discarding the supernatant, cells were permeabilized with 50 µL of permeabilization buffer (eBioScience FoxP3 buffer set 00-5523-00) for 10 minutes at room temperature. Following permeabilization, cells were spun down and the supernatant was replaced with 30 µL fluorescently labelled antibodies against the intracellular targets Helios (Helios-APC [BioLegend, Cat# 137222, 1:50]), Aiolos, and Ikaros lx Permeabilization buffer and staining reactions were incubated for 1 hour at room temperature; protected from light. Subsequently, 30 µL of lx Permeabilization buffer was added prior to centrifuging the cells and discarding the supernatant. Stained cells were resuspended in 30 µL of flow cytometry staining buffer (PBS + 0.5%BSA) and analyzed using an Intellicyt Ique Plus flow cytometer. TABLE B-1

IKZF3 Aiolos = IKZF3 Aiolos (Homo sapiens, UniProt Q96SW2+Q9UKT9); set-up: Foxp3-BV421, HELIOS-PE-Cy7, EOS-PE, IKAROS-PECF594, AIOLOS-AF647; endogenous in cells; host or cells: human PBMC from healthy donors (CD8+ T cells gated by flow cytometry)
Chain of IKZF3 Aiolos (Q9UKT9 whole entry): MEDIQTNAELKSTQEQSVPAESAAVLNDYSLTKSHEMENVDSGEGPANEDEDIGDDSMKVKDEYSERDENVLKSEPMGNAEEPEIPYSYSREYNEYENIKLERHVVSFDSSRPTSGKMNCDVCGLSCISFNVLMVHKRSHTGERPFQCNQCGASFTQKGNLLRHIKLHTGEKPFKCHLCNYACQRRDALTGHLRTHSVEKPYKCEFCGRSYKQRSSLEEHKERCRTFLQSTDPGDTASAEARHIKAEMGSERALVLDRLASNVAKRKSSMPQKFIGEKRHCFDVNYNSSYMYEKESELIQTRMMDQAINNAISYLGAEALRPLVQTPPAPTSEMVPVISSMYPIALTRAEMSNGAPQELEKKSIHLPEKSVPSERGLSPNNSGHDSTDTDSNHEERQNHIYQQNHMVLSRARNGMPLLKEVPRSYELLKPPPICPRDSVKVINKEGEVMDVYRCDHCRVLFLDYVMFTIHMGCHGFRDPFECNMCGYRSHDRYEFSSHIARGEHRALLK
Chain of IKZF3 Aiolos (Q96SW2 whole entry): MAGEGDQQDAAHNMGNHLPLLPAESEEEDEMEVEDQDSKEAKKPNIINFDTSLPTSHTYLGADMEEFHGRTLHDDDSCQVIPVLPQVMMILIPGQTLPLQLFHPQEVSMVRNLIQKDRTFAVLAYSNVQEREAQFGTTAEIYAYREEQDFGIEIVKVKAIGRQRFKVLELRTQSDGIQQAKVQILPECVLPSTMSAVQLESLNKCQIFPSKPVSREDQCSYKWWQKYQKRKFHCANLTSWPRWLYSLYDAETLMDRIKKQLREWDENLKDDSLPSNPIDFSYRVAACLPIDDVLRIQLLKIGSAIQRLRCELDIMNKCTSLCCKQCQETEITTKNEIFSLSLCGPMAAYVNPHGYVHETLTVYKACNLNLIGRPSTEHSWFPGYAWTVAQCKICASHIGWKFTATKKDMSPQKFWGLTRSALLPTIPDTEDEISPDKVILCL
Chain of IKZF3 Aiolos (Q16531 whole entry partner): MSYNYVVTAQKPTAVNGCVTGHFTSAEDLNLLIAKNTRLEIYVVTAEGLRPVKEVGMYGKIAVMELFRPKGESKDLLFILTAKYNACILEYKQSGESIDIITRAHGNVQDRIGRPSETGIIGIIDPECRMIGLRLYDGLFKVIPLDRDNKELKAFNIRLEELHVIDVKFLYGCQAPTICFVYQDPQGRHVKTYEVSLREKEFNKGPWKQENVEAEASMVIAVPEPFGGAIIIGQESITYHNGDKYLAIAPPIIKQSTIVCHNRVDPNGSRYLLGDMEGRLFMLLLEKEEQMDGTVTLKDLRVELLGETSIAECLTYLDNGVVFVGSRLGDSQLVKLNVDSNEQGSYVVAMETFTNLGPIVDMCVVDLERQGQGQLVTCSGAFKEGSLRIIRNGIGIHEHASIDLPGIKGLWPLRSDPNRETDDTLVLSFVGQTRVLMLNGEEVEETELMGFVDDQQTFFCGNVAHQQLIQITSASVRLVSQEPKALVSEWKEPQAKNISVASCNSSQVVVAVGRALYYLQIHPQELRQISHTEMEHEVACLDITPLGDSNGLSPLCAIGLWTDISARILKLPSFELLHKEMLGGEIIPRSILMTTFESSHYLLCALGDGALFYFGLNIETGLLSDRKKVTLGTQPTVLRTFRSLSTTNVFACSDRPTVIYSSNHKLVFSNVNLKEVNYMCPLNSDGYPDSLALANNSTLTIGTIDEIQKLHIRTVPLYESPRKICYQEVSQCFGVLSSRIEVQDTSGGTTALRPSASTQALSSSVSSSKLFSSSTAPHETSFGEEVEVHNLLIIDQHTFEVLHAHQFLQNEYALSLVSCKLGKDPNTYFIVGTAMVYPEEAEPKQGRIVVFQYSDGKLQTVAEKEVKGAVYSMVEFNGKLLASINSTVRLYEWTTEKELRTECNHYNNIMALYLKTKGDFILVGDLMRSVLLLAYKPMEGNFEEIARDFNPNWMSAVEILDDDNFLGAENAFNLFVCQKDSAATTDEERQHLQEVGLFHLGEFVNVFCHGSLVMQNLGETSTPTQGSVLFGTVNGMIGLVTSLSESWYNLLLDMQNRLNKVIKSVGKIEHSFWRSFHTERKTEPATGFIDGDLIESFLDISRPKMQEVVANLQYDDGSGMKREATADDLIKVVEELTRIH

Chain of IKZF2 Helios (Q9UKS7 whole entry): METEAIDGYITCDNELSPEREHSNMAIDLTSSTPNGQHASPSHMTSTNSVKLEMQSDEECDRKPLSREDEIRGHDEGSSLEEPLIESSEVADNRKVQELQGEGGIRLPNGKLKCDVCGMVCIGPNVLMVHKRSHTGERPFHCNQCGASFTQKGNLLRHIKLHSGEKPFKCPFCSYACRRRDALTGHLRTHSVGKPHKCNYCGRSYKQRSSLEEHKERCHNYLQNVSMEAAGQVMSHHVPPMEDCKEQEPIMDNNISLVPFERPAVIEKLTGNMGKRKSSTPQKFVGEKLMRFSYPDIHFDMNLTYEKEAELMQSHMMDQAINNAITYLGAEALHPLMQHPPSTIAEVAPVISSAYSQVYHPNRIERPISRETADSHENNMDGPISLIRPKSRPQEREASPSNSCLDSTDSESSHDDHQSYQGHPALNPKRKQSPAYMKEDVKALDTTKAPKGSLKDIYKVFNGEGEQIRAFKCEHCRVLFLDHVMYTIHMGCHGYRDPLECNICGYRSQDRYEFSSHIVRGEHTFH
Chain of IKZF2 Helios (Q96SW2 whole entry): as the sequence (Q96SW2 whole entry) above
Chain of IKZF2 Helios (Q16531 whole entry partner): as the sequence (Q16531 whole entry partner) above
T1 sequence (Q9H2S9 whole entry): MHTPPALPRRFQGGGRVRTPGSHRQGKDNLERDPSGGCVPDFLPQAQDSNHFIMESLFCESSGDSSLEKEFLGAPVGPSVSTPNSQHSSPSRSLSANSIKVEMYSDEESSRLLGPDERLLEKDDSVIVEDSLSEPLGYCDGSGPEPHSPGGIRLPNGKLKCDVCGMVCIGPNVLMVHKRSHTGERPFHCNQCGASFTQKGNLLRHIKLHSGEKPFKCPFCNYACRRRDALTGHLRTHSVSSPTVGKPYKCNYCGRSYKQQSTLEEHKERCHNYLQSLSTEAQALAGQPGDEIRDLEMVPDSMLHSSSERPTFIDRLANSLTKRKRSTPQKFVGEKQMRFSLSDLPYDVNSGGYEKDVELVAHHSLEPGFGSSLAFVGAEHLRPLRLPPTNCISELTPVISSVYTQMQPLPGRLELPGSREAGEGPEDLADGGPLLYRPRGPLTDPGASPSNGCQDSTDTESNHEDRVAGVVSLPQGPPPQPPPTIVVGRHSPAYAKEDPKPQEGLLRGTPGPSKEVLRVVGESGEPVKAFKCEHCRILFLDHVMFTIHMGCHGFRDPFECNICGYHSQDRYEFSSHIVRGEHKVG
T1 sequence (Q96SW2 whole entry): as the sequence (Q96SW2 whole entry) above
T1 sequence (Q16531 whole entry partner): as the sequence (Q16531 whole entry partner) above

Row | Structure (SMILES) | IKZF4 Eos max % deg. observed (IKZF4 Eos) [%] | DC50 (IKZF4 Eos) [nM] | IKZF2 Helios max % deg. observed (IKZF2 Helios) [%] | DC50 (IKZF2 Helios) [nM] | IKZF3 Aiolos max % deg. observed (IKZF3 Aiolos) [%] | DC50 (IKZF3 Aiolos) [nM]
1 | CO[C@H]1C[C@H](Oc2c(C)cc(-c3ccc(-c4cn(C5CCC(=O)NC5=O)c(=O)o4)c(F)c3)nc2N)C1 (relative stereo) [Example 2, trans 3-(5-(4-(6-amino-5-(3-methoxycyclobutoxy)-4-methylpyridin-2-yl)-2-fluorophenyl)-2-oxooxazol-3(2H)-yl)piperidine-2,6-dione] | 62 | 193 | 98 | 71 | 25 | > 100000
2 | CC1(C)Cc2cc(-c3ccc(-c4cn(C5CCC(=O)NC5=O)c(=O)o4)c(F)c3)nc(N)c2O1 (stereo not drawn) [Example 1, 3-(5-(4-(7-amino-2,2-dimethyl-2,3-dihydrofuro[2,3-c]pyridin-5-yl)-2-fluorophenyl)-2-oxooxazol-3(2H)-yl)piperidine-2,6-dione] | 56 | 55 | 98 | 52 | 22 | > 10000
3 | COC1CCN(Cc2ccc(-c3ccc(-c4cn(C5CCC(=O)NC5=O)c(=O)o4)c(F)c3)nc2N)CC1 (stereo not drawn) [Example 4, 3-(5-(4-(6-amino-5-((4-methoxypiperidin-1-yl)methyl)pyridin-2-yl)-2-fluorophenyl)-2-oxooxazol-3(2H)-yl)piperidine-2,6-dione] | 62 | 203 | 98 | 59 | 35 | > 10000

The remaining lines, values ahead:

Row | IKZF4 Eos max % deg. observed (IKZF4 Eos) [%] | DC50 (IKZF4 Eos) [nM] | IKZF2 Helios max % deg. observed (IKZF2 Helios) [%] | DC50 (IKZF2 Helios) [nM] | IKZF3 Aiolos max % deg. observed (IKZF3 Aiolos) [%] | DC50 (IKZF3 Aiolos) [nM] | Structure (SMILES)
4 | 59 | 141 | 98 | 51 | 25 | > 10000 | Cc1cc(-c2ccc(-c3cn(C4CCC(=O)NC4=O)c(=O)o3)c(F)c2)nc(N)c1NCC1CCOCC1 (stereo not drawn) [Example 3, 3-(5-(4-(6-amino-4-methyl-5-(((tetrahydro-2H-pyran-4-yl)methyl)amino)pyridin-2-yl)-2-fluorophenyl)-2-oxooxazol-3(2H)-yl)piperidine-2,6-dione]
5 | 67 | 575 | 98 | 46 | 29 | > 10000 | Cc1cc(-c2ccc(-c3cn(C4CCC(=O)NC4=O)c(=O)o3)c(F)c2)nc(N)c1COC1CCOCC1 (stereo not drawn) [Example 5, 3-(5-(4-(6-Amino-4-methyl-5-(((tetrahydro-2H-pyran-4-yl)oxy)methyl)pyridin-2-yl)-2-fluorophenyl)-2-oxooxazol-3(2H)-yl)piperidine-2,6-dione]

From patent publication EP4568957B1, “SUBSTITUTED PHENYL OXOOXAZOLYL PIPERIDINE DIONE COMPOUNDS” (Bristol-Myers Squibb Company, priority 2023, dated 2025)
